Data taken from patent publication US20200164084A1, “ANTIBODY CONJUGATES COMPRISING TOLL-LIKE RECEPTOR AGONIST AND COMBINATION THERAPIES” (NOVARTIS AG, priority 2017, published 2020).

Legend:
[1] = In vitro stability of conjugates in mouse serum (deconjugation and succinimide ring hydrolysis by LC-MS); format: in vitro ADME; conditions: anti-HER2 mAb2 conjugates, 37° C.
Description: The stability of the bond formed between maleimide containing payloads and Cys residues of the antibody is enhanced by the hydrolysis of the succinimide ring formed in this reaction. The effects of succinimide ring hydrolysis on the stability of antibody conjugates prepared with agonist compounds of the invention were studied after in vitro incubation in mouse serum. Mass changes resulting from payload deconjugation and the hydrolysis of the succinimide ring of maleimide payloads conjugated to antibodies were monitored by LC-MS. The hydrolysis of the succinimide ring has been reported to be stimulated by certain conditions such as high pH, high temperature, or high salts (J. Am. Chem. Soc. 1955, 77: 3922; Biochemistry 1976, 15: 2836; Biochem. J. 1979, 179: 191-197; J Pharm Sci. 1984, 73:1767-1771; Bioorg. Med. Chem. Lett. 17: 6286-6289, 2007). To probe the in vitro stability of conjugates, anti-HER2 antibody mAb2 conjugates were incubated at 37° C. in 50-70% mouse serum. […] The light chain, heavy chain Fab, and heavy chain Fc fragments were then analyzed by ESI-MS. The relative populations of deconjugated antibody, conjugates with attached payload with hydrolyzed succinimide ring, and conjugates with attached payload with intact succinimide ring, were calculated from the relative MS intensities of the corresponding conjugate species. […]

[2] = target: T1, human TLR7 (Homo sapiens, UniProt Q9NYK1); assay: TLR7 reporter gene assay (HEK293, NF-kB-driven luciferase); format: cell-based; conditions: HEK293 cells stably transfected with human TLR7 and NF-kB-driven luciferase reporter
T1 construct: expressed in transfected cells; host or cells: HEK293
T1 sequence (Q9NYK1 27-1049): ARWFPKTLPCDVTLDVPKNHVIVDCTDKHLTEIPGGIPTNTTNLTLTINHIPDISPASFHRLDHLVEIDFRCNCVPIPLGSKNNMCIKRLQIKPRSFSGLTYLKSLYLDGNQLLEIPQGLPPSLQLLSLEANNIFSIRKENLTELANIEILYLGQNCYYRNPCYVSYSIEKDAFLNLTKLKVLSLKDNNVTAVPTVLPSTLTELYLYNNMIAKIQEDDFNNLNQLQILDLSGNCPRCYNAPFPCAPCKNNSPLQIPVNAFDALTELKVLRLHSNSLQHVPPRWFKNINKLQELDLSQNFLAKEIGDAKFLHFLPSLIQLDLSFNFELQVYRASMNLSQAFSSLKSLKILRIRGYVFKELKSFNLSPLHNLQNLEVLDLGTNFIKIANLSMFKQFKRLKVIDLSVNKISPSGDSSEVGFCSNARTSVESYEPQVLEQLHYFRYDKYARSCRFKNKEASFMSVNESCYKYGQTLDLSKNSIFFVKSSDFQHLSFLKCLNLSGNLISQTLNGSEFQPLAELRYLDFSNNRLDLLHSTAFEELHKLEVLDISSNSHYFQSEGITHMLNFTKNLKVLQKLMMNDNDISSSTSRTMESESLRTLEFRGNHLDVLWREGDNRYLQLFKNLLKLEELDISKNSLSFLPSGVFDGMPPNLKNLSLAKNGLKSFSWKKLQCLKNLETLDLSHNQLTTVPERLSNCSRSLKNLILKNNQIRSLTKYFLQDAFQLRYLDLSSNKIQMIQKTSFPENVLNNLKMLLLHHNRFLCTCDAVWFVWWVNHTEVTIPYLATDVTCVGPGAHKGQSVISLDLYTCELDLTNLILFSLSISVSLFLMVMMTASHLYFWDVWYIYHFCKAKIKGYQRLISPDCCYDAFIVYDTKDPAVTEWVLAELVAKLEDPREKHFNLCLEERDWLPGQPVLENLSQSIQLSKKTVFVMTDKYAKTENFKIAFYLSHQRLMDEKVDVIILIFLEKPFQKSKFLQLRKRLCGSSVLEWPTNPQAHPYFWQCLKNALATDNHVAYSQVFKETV
Description: Compounds of Formula (I) were assayed to measure their activity as toll-like receptor 7 agonists.
As a control assay, normal HEK293 transfected with pNifty-Luc were used. […] Bright-Glo™ Luciferase assay buffer and substrate were supplied by Promega # E263B and # E264B (assay substrate and buffer respectively). 384 well clear-bottom plates were supplied by Greiner bio-one (#789163-G) and were custom bar-coded plates.
Cells were plated at 25,000 cells/well in 384-well plates in a final volume of 50 μl of media. Cells were allowed to adhere to the plates after overnight (18 hours) culture at 37° C. and 5% CO2. Serially diluted experimental and positive control compounds were then dispensed to each well and incubated for 7 hours at 37° C. and 5% CO2. Cells stimulated with DMSO alone also serve as negative controls. After the incubation, 30 μl of the pre-mix assay buffer and substrate buffer were added to each well according to manufacturer's instructions. The luminescence signal was read on a CLIPR machine with an integration time of 20 seconds per plate.

SMILES | conjugate stability (deconjugation through reverse maleimide reaction, succinimide ring hydrolysis) [1] | EC50 [2]
CCCCCNc1nc(N)nc2ccn(Cc3ccc(CN4CCN(CCN5C(=O)C=CC5=O)CC4)cc3OC)c12 [Compound C-5, 1-(2-(4-(4-((2-amino-4-(pentylamino)-5H-pyrrolo[3,2-d]pyrimidin-5-yl)methyl)-3-methoxybenzyl)piperazin-1-yl)ethyl)-1H-pyrrole-2,5-dione] | improved conjugate stability | –
CCCCCNc1nc(N)nc2ccn(Cc3ccc(CN4CCN(CCO)CC4)cc3OC)c12 [Compound C-68, 2-(4-(4-((2-amino-4-(pentylamino)-5H-pyrrolo[3,2-d]pyrimidin-5-yl)methyl)-3-methoxybenzyl)piperazin-1-yl)ethan-1-ol] | – | < 1 nM
CCCC[C@@H](CO)Nc1nc(N)nc2ccn(Cc3cc(CN4CCN(C(=O)CCCC(=O)NCCCC[C@H](N)C(=O)O)CC4)ccc3OC)c12 [Compound C-48, (S)-2-amino-6-(5-(4-(3-((2-amino-4-(((S)-1-hydroxyhexan-2-yl)amino)-5H-pyrrolo[3,2-d]pyrimidin-5-yl)methyl)-4-methoxybenzyl)piperazin-1-yl)-5-oxopentanamido)hexanoic acid] | – | 1900 nM
CCCCCNc1nc(N)nc2ccn(Cc3ccc(CN4CCN(C(=O)CCOCCOCCNC(=O)CN5C(=O)C=CC5=O)CC4)cc3OC)c12 [Compound C-21, N-(2-(2-(3-(4-(4-((2-amino-4-(pentylamino)-5H-pyrrolo[3,2-d]pyrimidin-5-yl)methyl)-3-methoxybenzyl)piperazin-1-yl)-3-oxopropoxy)ethoxy)ethyl)-2-(2,5-dioxo-2,5-dihydro-1H-pyrrol-1-yl)acetamide] | improved conjugate stability | –
